This note sets out measurements from US20220235043A1, “SUBSTITUTED SULFONAMIDE PYRROLOPYRIDINES AS JAK INHIBITORS” (ACLARIS THERAPEUTICS, INC., priority 2019, published 2022).

A value given as a limit tells only on which side of the number the result lay.

In one assay the target is T1, JAK1 (Homo sapiens, UniProt P23458).
T1 construct: purchased Thermo Fisher Scientific (SelectScreen service)
As to the kind of experiment: JAK1 enzyme activity assay (Thermo Fisher Selectscreen, Z-lyte). The assay is classed as biochemical. The following applies: read-out: JAK1 Inhibition IC50. Summed up: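 Z-lyte FRET kinase assay with 21.2-91.5 ng JAK1 and 2 μM Tyr 06 peptide in 50 mM HEPES pH 7.0, 10 mM MgCl2, 1 h reaction before development reagent. Background without enzyme, uninhibited signal with 2% DMSO vehicle; 11-point dose-response, IC50 from 4-parameter logistic fit of emission ratio.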

The next assay deals with T2, Tyk-2 (Homo sapiens, UniProt P29597).
T2 construct: purchased Thermo Fisher Scientific (SelectScreen service)
The experiment in a line: Tyk-2 enzyme activity assay (Thermo Fisher Selectscreen, Z-lyte). The class given is biochemical. The following applies: read-out: Tyk-2 Inhibition IC50. The essentials:
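Z-lyte FRET assay with 3.75-15 ng TYK2 and 2 μM Tyr 03 peptide in 50 mM HEPES pH 7.0, 10 mM MgCl2, 1 mM EGTA, 0.01% BRIJ-35. Reaction ran one hour before development reagent was added. Compounds were tested in an 11-point dose-response; IC50 came from a 4-parameter logistic fit of emission ratio, normalised to no-enzyme and 2% DMSO vehicle controls.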

A further assay addresses T3, JAK2 (Homo sapiens, UniProt O60674).
T3 construct: purchased Thermo Fisher Scientific (SelectScreen service)
As to the kind of experiment: JAK2 enzyme activity assay (Thermo Fisher Selectscreen, Z-lyte). The following applies: read-out: JAK2 Inhibition IC50. The assay is classed as biochemical. The essentials:
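Z-lyte FRET kinase format: 0.12-0.5 ng JAK2 with 2 μM Tyr 06 peptide in HEPES pH 7.5, 10 mM MgCl2, 1 h reaction, then development reagent. Compounds were run as 11-point dose-response, 2% DMSO vehicle. IC50 came from 4-parameter logistic fit of emission ratio.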

Another assay concerns the target T4, JAK3 (a.a. 781-1124) (Homo sapiens, UniProt P52333).
T4 construct: JAK3 (a.a. 781-1124, ThermoFisher); purchased ThermoFisher
As to the kind of experiment: JAK3 enzyme activity assay (SRCtide phosphorylation, Caliper). The class given is biochemical. The following applies: 1 uM ATP; read-out: JAK3 Inhibition IC50. The essentials:
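Kinase reactions used 2.5 nM JAK3 (aa 781-1124), 1 μM FAM-SRCtide and 1 uM ATP in HEPES pH 7.5, MgCl2, BSA, Tween-20, 2% DMSO. Incubation was 40 min at room temperature, stopped with EDTA. Phospho/unphospho peptide separated by Caliper mobility shift; IC50 from 11-point 3-fold 4-parameter fits.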

The subject of assay [1] is IL-12 stimulated STAT4 phosphorylation on Tyr693 (JAK2/TYK2). The experiment in a line: JAK2/TYK2 cellular target modulation: IL-12 stimulated phospho-STAT4 in human PBMC. The class given is cell-based. The following applies: IL-12 1.7 ng/ml, read-out: IL12-STAT4 IC50. Summed up: (§1)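 Thawed human PBMC (200,000/well) preincubated with compound 1 h at 37°C, then stimulated with IL-12 1.7 ng/ml for 25 min, IFNγ 10 ng/ml for 10 min, or IL-2 25 ng/ml for 5 min. Lysate phospho-STAT4 Tyr693 and phospho-STAT5 Tyr694 read by MSD; phospho-STAT1 Tyr701 by sandwich ELISA.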

For assay [2], the system named is IL-2 stimulated STAT5 phosphorylation on Tyr694 (JAK1/3). The experiment in a line: JAK1/3 cellular target modulation: IL-2 stimulated phospho-STAT5 in human PBMC. The class given is cell-based. The following applies: IL-2 25 ng/ml, read-out: IL2-STAT5 IC50. The essentials: as §1
For assay [3], the system named is IFNγ stimulated STAT1 phosphorylation on Tyr701 (JAK1/2). The experiment in a line: JAK1/2 cellular target modulation: IFNγ stimulated phospho-STAT1 in human PBMC. The class given is cell-based. The following applies: IFNγ 10 ng/ml, read-out: Infγ-STAT1 IC50. The essentials: as §1

T1 sequence (P23458 whole entry): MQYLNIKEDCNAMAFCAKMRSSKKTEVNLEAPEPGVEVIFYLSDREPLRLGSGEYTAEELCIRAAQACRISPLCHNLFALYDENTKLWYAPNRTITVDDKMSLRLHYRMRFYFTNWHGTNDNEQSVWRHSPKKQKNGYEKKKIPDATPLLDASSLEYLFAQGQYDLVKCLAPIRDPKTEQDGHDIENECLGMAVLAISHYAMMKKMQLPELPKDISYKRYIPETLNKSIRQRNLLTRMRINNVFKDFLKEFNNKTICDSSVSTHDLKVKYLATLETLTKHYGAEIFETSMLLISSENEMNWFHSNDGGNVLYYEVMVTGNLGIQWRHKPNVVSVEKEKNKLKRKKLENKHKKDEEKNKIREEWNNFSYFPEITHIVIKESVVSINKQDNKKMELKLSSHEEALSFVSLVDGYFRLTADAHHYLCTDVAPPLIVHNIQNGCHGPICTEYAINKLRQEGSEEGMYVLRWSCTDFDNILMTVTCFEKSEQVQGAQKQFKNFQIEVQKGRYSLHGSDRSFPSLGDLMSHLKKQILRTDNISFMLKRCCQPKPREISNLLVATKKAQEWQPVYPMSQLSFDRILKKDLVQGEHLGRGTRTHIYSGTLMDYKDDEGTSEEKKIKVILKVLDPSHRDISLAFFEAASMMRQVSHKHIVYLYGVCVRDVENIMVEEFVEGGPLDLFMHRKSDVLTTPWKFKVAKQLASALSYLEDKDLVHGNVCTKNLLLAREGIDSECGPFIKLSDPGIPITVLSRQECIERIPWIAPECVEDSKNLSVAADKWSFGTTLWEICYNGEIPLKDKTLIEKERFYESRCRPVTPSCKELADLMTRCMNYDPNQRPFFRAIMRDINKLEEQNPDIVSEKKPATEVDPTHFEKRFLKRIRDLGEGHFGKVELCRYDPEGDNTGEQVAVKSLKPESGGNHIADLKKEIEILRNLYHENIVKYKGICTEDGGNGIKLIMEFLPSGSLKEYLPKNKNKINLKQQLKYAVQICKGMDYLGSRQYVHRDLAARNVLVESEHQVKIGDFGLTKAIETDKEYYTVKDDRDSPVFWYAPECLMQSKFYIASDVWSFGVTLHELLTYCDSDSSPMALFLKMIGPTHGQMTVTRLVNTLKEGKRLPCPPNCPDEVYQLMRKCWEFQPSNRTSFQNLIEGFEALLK
T4 sequence (P52333 781-1124): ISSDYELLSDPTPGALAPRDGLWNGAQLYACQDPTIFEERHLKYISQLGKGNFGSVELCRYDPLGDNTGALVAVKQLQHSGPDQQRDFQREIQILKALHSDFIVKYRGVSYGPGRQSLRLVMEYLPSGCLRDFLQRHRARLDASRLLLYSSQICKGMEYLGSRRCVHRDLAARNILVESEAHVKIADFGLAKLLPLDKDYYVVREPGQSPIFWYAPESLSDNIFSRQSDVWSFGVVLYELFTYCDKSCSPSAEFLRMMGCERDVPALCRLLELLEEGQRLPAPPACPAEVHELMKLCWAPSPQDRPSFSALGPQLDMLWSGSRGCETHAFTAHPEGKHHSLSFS
T3 sequence (O60674 whole entry): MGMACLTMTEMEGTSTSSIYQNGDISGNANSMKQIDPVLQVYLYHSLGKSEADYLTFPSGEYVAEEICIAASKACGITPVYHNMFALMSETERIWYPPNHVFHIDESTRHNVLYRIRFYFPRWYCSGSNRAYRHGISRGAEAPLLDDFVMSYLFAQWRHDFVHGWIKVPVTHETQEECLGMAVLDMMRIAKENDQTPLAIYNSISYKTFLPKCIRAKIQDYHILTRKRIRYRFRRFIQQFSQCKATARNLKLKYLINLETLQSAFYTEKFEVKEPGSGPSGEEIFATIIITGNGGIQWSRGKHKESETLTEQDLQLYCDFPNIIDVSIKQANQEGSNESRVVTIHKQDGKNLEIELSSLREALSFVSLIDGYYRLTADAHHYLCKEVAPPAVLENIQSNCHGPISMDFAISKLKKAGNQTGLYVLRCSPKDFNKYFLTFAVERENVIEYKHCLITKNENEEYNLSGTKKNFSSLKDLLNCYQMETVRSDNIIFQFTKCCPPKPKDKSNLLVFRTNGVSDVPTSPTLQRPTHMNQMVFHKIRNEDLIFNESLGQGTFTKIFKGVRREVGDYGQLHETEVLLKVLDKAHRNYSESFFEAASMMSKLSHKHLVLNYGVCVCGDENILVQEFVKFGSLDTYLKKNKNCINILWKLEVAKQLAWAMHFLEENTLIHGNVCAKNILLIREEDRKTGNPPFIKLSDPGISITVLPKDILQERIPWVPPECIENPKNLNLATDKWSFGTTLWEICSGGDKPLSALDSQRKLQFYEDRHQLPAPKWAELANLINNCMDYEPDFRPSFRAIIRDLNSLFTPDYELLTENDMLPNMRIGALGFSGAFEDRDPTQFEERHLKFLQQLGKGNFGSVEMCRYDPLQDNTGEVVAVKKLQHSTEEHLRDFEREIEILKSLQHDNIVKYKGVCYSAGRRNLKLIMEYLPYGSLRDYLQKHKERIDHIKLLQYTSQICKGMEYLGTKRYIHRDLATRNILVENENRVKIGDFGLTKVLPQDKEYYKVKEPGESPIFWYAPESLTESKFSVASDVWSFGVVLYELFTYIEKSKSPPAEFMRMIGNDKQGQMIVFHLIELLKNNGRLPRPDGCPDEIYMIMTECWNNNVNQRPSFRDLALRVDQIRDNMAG
T2 sequence (P29597 whole entry): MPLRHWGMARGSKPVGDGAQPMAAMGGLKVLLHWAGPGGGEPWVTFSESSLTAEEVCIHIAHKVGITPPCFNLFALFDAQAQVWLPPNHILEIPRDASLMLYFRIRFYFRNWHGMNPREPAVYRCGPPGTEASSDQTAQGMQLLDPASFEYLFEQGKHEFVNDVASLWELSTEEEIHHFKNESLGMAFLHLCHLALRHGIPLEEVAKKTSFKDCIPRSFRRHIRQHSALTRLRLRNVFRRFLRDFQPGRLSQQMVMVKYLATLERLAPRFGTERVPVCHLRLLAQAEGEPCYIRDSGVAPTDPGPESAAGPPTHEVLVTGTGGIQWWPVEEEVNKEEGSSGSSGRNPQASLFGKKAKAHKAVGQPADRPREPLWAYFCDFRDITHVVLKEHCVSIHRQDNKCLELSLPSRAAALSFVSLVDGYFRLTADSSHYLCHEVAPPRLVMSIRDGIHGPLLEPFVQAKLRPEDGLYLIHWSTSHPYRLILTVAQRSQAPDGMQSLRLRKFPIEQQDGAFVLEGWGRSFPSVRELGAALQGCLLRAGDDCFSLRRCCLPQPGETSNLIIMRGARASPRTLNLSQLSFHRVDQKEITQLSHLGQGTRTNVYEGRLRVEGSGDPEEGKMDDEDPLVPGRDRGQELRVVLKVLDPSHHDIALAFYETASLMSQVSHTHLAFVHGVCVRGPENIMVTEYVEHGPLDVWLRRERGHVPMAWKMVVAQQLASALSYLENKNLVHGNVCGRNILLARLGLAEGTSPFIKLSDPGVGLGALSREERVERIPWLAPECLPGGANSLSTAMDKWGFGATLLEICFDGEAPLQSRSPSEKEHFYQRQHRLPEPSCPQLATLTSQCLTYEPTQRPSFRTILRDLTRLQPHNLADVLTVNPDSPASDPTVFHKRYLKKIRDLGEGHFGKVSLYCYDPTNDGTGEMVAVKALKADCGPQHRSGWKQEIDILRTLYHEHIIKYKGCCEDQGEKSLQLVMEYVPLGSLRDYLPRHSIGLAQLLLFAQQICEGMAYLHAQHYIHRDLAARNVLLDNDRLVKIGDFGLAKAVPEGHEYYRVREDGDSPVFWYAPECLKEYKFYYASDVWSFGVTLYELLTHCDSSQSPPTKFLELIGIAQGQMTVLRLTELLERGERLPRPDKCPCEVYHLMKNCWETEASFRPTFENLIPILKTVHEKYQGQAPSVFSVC

Take `Cc1cnc(-c2cnc3[nH]ccc3c2N[C@H]2C[C@@H](NS(=O)(=O)c3cccc(C#N)c3)C2)s1` [Example 74, 3-cyano-N-((1s,3s)-3-((5-(5-methylthiazol-2-yl)-1H-pyrrolo[2,3-b]pyridin-4-yl)amino)cyclobutyl)benzenesulfonamide]: the IC50 (commonly the midpoint of a concentration-inhibition curve) was not above 10 nM at JAK1; 10 to 100 nM at Tyk-2; 10 to 100 nM at JAK2; not above 10 nM on JAK3 (a.a. 781-1124); 100 to 1000 nM in assay [1]; not above 100 nM in assay [2]. In assay [3], the IC50 fell in the range of 100 to 1000 nM.
